# Patent US5861263A, “Preparation of preserved entamoeba histolytica antigens without enzymatic inhibitors and their use in immunological methods” (Universidad Autonoma De Nuevo Leon, priority 1992, dated 1999)
# Tested on: proteases of Entamoeba histolytica crude extract
# Experiment: Inhibition of crude amebic extract proteolytic activity (hide powder azure)
# Format: biochemical, Entamoeba histolytica HK-9
# Conditions: 4 mM iodoacetamide
# Protocol: The second method was carried out according to Rinderknecht et al., Clinica Chimica Acta., 21: 197-203 (1968). The activity corresponding to 6 million trophozoites was tested. Crude amebic extracts, IC:M and IC:MC were used. The samples were resuspended in 1.5 ml 0.05M Tris-HCL pH 7.5 containing 0.5% Triton X-100, and incubated for one hour at 4° C. and centrifuged at 11,000×g for 15 minutes. One ml. of the supernatant was added to 1 ml Tris-HCl containing 5 mg hide powder azure and 100 μl .2M cysteine. The samples were incubated at 37° C. for 1 hour and at the end of which the reaction was stopped by putting the tubes in an ice water bath. They were cold-centrifuged for 5 minutes at 450×g. The absorbency of the supernatants were determined at a wavelength of 600 nm. The former treatment was also done with samples that were incubated in the presence of SDS 2% or 2-ME 5% or 4 mM iodoacetamide. The positive control was taken as the activity obtained with 0.23 mg papain, which was activated with 0.7 mM 2-ME in Tris-HCl 0.05M at pH 8.0 at 4° C. for 10 minutes and then at 37° C. for 15 minutes with frequent stirring. Reaction mixtures without extracts were used as the negative control.
structure (smiles),measurement,value
NC(=O)CI [iodoacetamide],inhibition of the activity of the crude extract,approximately 70%
